Source: publication PMC7041945, “Misfolded proteins bind and activate death receptor 5 to trigger apoptosis during unresolved endoplasmic reticulum stress” (eLife, 2020)
Residues, ends and D or L forms follow the SMILES beside them. *: point of attachment. Cbz = O=C(OCc1ccccc1)*; CH2F = FC*

Experiments:
[1] = test system: HCT116 cells; test: Annexin V (and SytoxBlue) flow cytometry for apoptosis; format: cell-based, Homo sapiens; conditions: for Annexin V +, Sytox Blue + cells / Annexin V +, Sytox Blue - cells / Annexin V -, Sytox Blue - cells: transfected 24 hr, no z-VAD
Description: Cells seeded in a 6-well plate were transfected with the specified plasmid for 24 hr and harvested via trypsinization in complete media to allow a 30 min recovery at 37°C. The samples were then centrifuged at 500xg for 5 min and resuspended In 150 μl of a 1:20 dilution of Annexin V-AlexaFluor 647 conjugate (Thermo Scientific #A23204). Samples were transferred to a 96-well U-bottom plate and incubated in the dark for 15 min at RT. The distribution of apoptotic cells was determined by flow cytometry on a BD LSR II.

[2] = test system: DR5 / ERGIC53 / giantin in HCT116 cells; test: Immunofluorescence co-localization (Pearson's correlation per cell); format: cell-based, Homo sapiens; conditions: for Pearson's correlation per cell of GFP-tagged peptide with DR5 / Pearson's correlation per cell of GFP-tagged peptide with ERGIC: HCT116, 24 hr post-transfection; for Pearson's correlation per cell of GFP-tagged peptide with DR5 / Pearson's correlation per cell of GFP-tagged peptide with ERGIC / Pearson's correlation per cell between DR5 and ERGIC: Mean ± SEM; for Pearson's correlation per cell between DR5 and ERGIC: HCT116 expressing GFP-tagged peptide, 24 hr
Description: HCT116 were seeded at 25000 cells per well in an 8-well glass-bottom μSlide (Ibidi 80827) pre-coated with Collagen IV (Sigma-Aldrich C6745, 0.03 mg/ml in PBS incubated for 30 min at RT, and then rinsed off with PBS x 3) in growth media 18 hr prior to transfection (see above for protocol). 24 hr post-transfection, the cells were fixed using 4% paraformaldehyde (PFA, Electron Microscopy Sciences) or methanol, depending on the antibody combination used for immunostaining (see table below). Samples were protected from light after fixation to preserve GFP fluorescence.
For fixation with 4% PFA, 32% PFA was added directly to the well in growth media for a 1:8 dilution and incubated for 10–15 min at RT. Cells were then permeabilized with PHEM buffer (60 mM PIPES, 25 mM HEPES, 10 mM EGTA, 2 mM MgCl2-hexahydrate, pH 6.9) containing 0.1% Triton-X100 for 10 min at RT for three washes.
For fixation with methanol, media was removed and cells were washed with cold PBS. Then methanol (pre-cooled at −20°C) was added to the well and incubated at −20°C for 3–4 min. The methanol was promptly aspirated and replaced with PHEM buffer (without Triton X-100), followed by two more 10 min washes with PHEM at RT.
To block against non-specific antibody interactions, cells were rinsed in PHEM (without 0.1% Triton X-100) and then incubated with PHEM containing 2% normal goat serum (Jackson Immunoresearch Laboratories, 005-000-121) for 1 hr at RT. Primary antibodies were incubated in blocking solution overnight at 4°C at the dilution noted in the table above. Cells were then washed with PHEM buffer for 10 min at RT x three and incubated with secondary antibodies, anti-mouse-AlexaFluor546 (Invitrogen A11030) and anti-rabbit-AlexaFluor633 (Invitrogen A21071), diluted 1:1000 in PHEM with 2% normal goat serum. (Secondary antibody solutions were centrifuged at 15000xg for 20 mins at 4°C to remove aggregates prior to incubating with cell samples.) After a 1 hr incubation at RT, cells were washed with PHEM buffer once, then incubated with PHEM buffer containing nuclear stain (DAPI, Molecular Probes, Eugene, OR, D-1306, 5 μg/mL), and finally rinsed with PHEM buffer twice before imaging.
Samples were imaged on a spinning disk confocal with Yokogawa CSUX A1 scan head, Andor iXon EMCCD camera, and 40x Plan Apo air Objective NA 0.95 or 100x ApoTIRF objective NA 1.49 (Nikon).
From the 405 nm channel, cell nuclei were identified as primary objects using maximum correlation thresholding (MCT) and shape to distinguish clumped objects. Secondary objects were outlined using propagation from the nuclei (DAPI) after applying MCT from the 488 nm, 561 nm, and 633 nm channels. Tertiary objects for each cell was identified as the mask of each nucleus subtracted from the mask of its corresponding secondary object in each channel, yielding masks for intracellular GFP-tagged protein from the 488 nm channel, for intracellular DR5 from the 561 nm channel, and for the organelle marker in the 633 nm channel. For overlap between DR5 and MPZ/RHO-GFP, Pearson’s correlation coefficients were calculated within the MPZ/RHO mask for each cell to filter out untransfected cells. For overlap between DR5/MPZ and organelle markers, Pearson’s correlation coefficients were calculated within tertiary objects for the organelle marker in GFP+ cells. Statistical analyses for all data sets were performed using GraphPad Prism 6.0.

[3] = test system: DR5 ECD; test: Peptide array binding of Fc-tagged DR5 ectodomain (MPZ and RHO sequences; amino acid enrichment); parameters: species or system human; conditions: rhodopsin EL1-EL3 peptide array; for Corrected rawintden - min: min subtracted; for normalized (binding intensity): normalized from corrected rawintden - min
Description: Peptide arrays were purchased from the MIT Biopolymers Laboratory as described previously in [Karagöz et al. (2017)] and [Gardner and Walter (2011)]. The sequences of each protein were tiled from N- to C-terminus in 18-amino-acid-long peptides shifting by three amino acids from the previous spot. The arrays were incubated in methanol for 10 min, and then washed in binding buffer (50 mM HEPES pH 7.2, 250 mM NaCl, 10% glycerol) for 10 min at room temperature x 3. 500 nM of Fc-tagged DR5 extracellular domain (ECD, a kind gift from Scot Marsters) was incubated with the array in binding buffer at room temperature for 1 hr. Then, the array was washed three times for 10 min with binding buffer to remove unbound protein. The bound DR5 ECD was then transferred onto a nitrocellulose membrane via a semi-dry transfer apparatus (Owl HEP-1) at 80 mA for 45 min at 4°C. The membrane was then blocked with 1xPBST with 5% milk for 1 hr at room temperature and probed with 1:1000 anti-Fc (One World Lab #603–510) overnight at 4°C followed by 1:10000 anti-mouse IgG-HRP (Promega #W4021) for 1 hr at RT. The membrane was imaged using chemi-luminescence with the Bio-Rad Universal Hood II Gel Doc below saturating pixel intensities. The signal of each spot was quantified using Max Quant and normalized to the maximum intensity of all the spots on the same array.

[4] = test system: caspase 8 in HCT116 lysates; test: Caspase 8 activity (caspase glo 8) of cell lysates / IP inputs; format: cell-based, Homo sapiens; conditions: for average fold change relative to empty: HCT116, rep 1, average of 4 dilutions; for norm RLUs: rep 2, normalized by lysate quant
Description: Cells harvested from a 6-well plate were resuspended in 100 μl of lysis buffer (30 mM HEPES pH 7.2, 150 mM NaCl, 1% Triton X-100) and lysed via needle shearing (25G, 10 passes) followed by a 30 min incubation on ice. Supernatant was collected after centrifuging at 1000xg for 5 min. For the caspase activity assay, 10 μl of supernatant diluted with lysis buffer (1:25, 1:50, 1:100 to stay within linear range of luminescence measurements) was incubated with 10 μl of the luminogenic caspase glo 8 substrate (Promega #PRG8200) in a 384-white walled plate (Corning 3574) for 45 min at RT before measuring luminescence on a Spectramax-M5 plate reader.

Molecule	Corrected rawintden - min [3]	normalized (binding intensity) [3]	other results
CC(NC(=O)C(NC(=O)OCc1ccccc1)C(C)C)C(=O)NC(CC(=O)O)C(=O)CF (stereo not drawn) [zVAD, reference compound] (Cbz-Val-Ala-Asp-CH2F; configuration not given here)	–	–	annexin V staining with pan-caspase inhibitor ([1]; cells expressing MPZ-ecto peptide): diminished the extent of annexin V staining
DR5 siRNA: siRNA oligonucleotides against DR5 (Dharmacon L-004448-00-0005) (guide AAGACCCUUGUGCUCGUUGUCUU; further chemistry not given here) [reference compound]	–	–	PARP cleavage and annexin V staining after DR5 knockdown ([1]; DR5 siRNA 48 hr, then MPZ-GFP overexpression 24 hr): significantly reduced PARP cleavage and annexin V staining; DR5 immunofluorescence signal ([2]; siRNA 48 hr, MPZ-GFP 24 hr): eliminated the DR5 signal
EQPQYYLAEPWQLHGYFV	507200	0.1237	–
ESTHQGSNFMNGTEGPNF	320074	0.07803	–
ETEREQPEGGRDAISIEHEA [MPZ-ecto peptide^Arom→Glu-eGFP, expressed GFP-tagged construct with all aromatic residues of the MPZ-ecto peptide mutated to Glu]	–	–	Annexin V +, Sytox Blue + cells [1]: 8.17% of cells; Annexin V +, Sytox Blue - cells [1]: 4.89% of cells; Annexin V -, Sytox Blue - cells [1]: 86.5% of cells; Pearson's correlation per cell of GFP-tagged peptide with DR5 [2]: 0.27 ± 0.03; Pearson's correlation per cell of GFP-tagged peptide with ERGIC [2]: 0.25 ± 0.03; Pearson's correlation per cell between DR5 and ERGIC [2]: 0.50 ± 0.03
FGPTGCNLERYIPEGMQC	1562181	0.3809	–
FSNVTGVVRSPFEQPQYY	470277	0.1147	–
FTWREQPEGGRDAISIFHEA [MPZ-ecto peptide^Tyr→Glu-eGFP, expressed GFP-tagged construct with Tyr → Glu mutations in the MPZ-ecto peptide]	–	–	Annexin V +, Sytox Blue + cells [1]: 5.66% of cells; Annexin V +, Sytox Blue - cells [1]: 3.64% of cells; Annexin V -, Sytox Blue - cells [1]: 90.3% of cells; Pearson's correlation per cell of GFP-tagged peptide with DR5 [2]: 0.15 ± 0.03; Pearson's correlation per cell of GFP-tagged peptide with ERGIC [2]: 0.22 ± 0.05; Pearson's correlation per cell between DR5 and ERGIC [2]: 0.44 ± 0.04
HQGSNFMNGTEGPNFYVP	360135	0.0878	–
IDYYTLKPEVNNESTHQG	1420533	0.3463	–
INS1	–	–	average fold change relative to empty ([4]; siDR5): 1.524 fold change; average fold change relative to empty ([4]; siNT): 2.0013 fold change
KPEVNNESTHQGSNFMNG	941789	0.2296	–
LAEPWQLHGYFVFGPTGC	890759	0.2172	–
LHGYFVFGPTGCNLERYI	1142815	0.2786	–
MNGTEGPNFYVPFSNVTG	827091	0.2016	–
MQCSCGIDYYTLKPEVNN	1701232	0.4148	–
NLERYIPEGMQCSCGIDY	395368	0.09639	–

Molecule	Corrected rawintden - min [3]	normalized (binding intensity) [3]	other results
PEGMQCSCGIDYYTLKPE	1657676	0.4041	–
PNFYVPFSNVTGVVRSPF	624655	0.1523	–
PWQLHGYFVFGPTGCNLE	1093768	0.2667	–
QYYLAEPWQLHGYFVFGP	996384	0.2429	–
RYIPEGMQCSCGIDYYTL	1340468	0.3268	–
SCGIDYYTLKPEVNNEST	1488599	0.3629	–
SNFMNGTEGPNFYVPFSN	337810	0.08236	–
SPFEQPQYYLAEPWQLHG	517083	0.1261	–
TEGPNFYVPFSNVTGVVR	1182345	0.2883	–
TGCNLERYIPEGMQCSCG	1149984	0.2804	–
VNNESTHQGSNFMNGTEG	294091	0.0717	–
VTGVVRSPFEQPQYYLAE	402567	0.09815	–
VVRSPFEQPQYYLAEPWQ	375649	0.09158	–
YFVFGPTGCNLERYIPEG	490636	0.1196	–
YTLKPEVNNESTHQGSNF	870062	0.2121	–
YVPFSNVTGVVRSPFEQP	640840	0.1562	–
insGFP	–	–	norm RLUs ([4]; dilution 0.025): 1827.1 RLUs; norm RLUs ([4]; dilution 0.05): 3654.19 RLUs; norm RLUs ([4]; dilution 0.1): 8264.86 RLUs
